Laboratory results published in EP2706123A1, “In vitro method for determining genotoxic and non-genotoxic carcinogenicity of a compound” (Rijksinstituut Voor Volksgezondheid En Milieu, priority 2012, dated 2014).
Several values for one entry are separate records, joined by “and”; a condition that tells them apart may be missing. Equal entries are not always repeated.

Experiments:
[1] = test system: Anks4b; experiment: Expression level of marker gene Anks4b in liver of mice exposed for 7 days (microarray); settings: mouse liver, 7 days exposure; for Average Fold Changes of the expression level of marker gene Anks4b: average of 3 - 4 independent repeat experiments, negative value = underexpression (negative inverse of Ratio), dose and route per compound in Table 8; for Fold Change of expression of Anks4b in individual animals: one animal per table line (suffix of Exposure label = animal number), negative value = underexpression
[2] = test system: Cyp17a1; experiment: Expression level of marker gene Cyp17a1 in liver of mice exposed for 7 days (microarray); settings: mouse liver, 7 days exposure; for Average Fold Changes of the expression level of marker gene Cyp17a1: average of 3 - 4 independent repeat experiments, negative value = underexpression (negative inverse of Ratio), dose and route per compound in Table 8; for Fold Change of expression of Cyp17a1 in individual animals: one animal per table line (suffix of Exposure label = animal number), negative value = underexpression
[3] = test system: Nup62; experiment: Expression level of marker gene Nup62 in liver of mice exposed for 7 days (microarray); settings: mouse liver, 7 days exposure; for Average Fold Changes of the expression level of marker gene Nup62: average of 3 - 4 independent repeat experiments, negative value = underexpression (negative inverse of Ratio), dose and route per compound in Table 8; for Fold Change of expression of Nup62 in individual animals: one animal per table line (suffix of Exposure label = animal number), negative value = underexpression
[4] = test system: 9030619P08Rik; experiment: Expression level of marker gene 9030619P08Rik in liver of mice exposed for 7 days (microarray); settings: mouse liver, 7 days exposure; for Average Fold Changes of the expression level of marker gene 9030619P08Rik: average of 3 - 4 independent repeat experiments, negative value = underexpression (negative inverse of Ratio), dose and route per compound in Table 8; for Fold Change of expression of 9030619P08Rik in individual animals: one animal per table line (suffix of Exposure label = animal number), negative value = underexpression
[5] = test system: Zbtb16; experiment: Expression level of marker gene Zbtb16 in liver of mice exposed for 7 days (microarray); settings: mouse liver, 7 days exposure; for Average Fold Changes of the expression level of marker gene Zbtb16: average of 3 - 4 independent repeat experiments, negative value = underexpression (negative inverse of Ratio), dose and route per compound in Table 8; for Fold Change of expression of Zbtb16 in individual animals: one animal per table line (suffix of Exposure label = animal number), negative value = underexpression
[6] = test system: LOC75771; experiment: Expression level of marker gene LOC75771 in liver of mice exposed for 7 days (microarray); settings: mouse liver, 7 days exposure; for Average Fold Changes of the expression level of marker gene LOC75771: average of 3 - 4 independent repeat experiments, negative value = underexpression (negative inverse of Ratio), dose and route per compound in Table 8; for Fold Change of expression of LOC75771 in individual animals: one animal per table line (suffix of Exposure label = animal number), negative value = underexpression

SMILES	Average Fold Changes of the expression level of marker gene Anks4b [1]	Fold Change of expression of Anks4b in individual animals [1]	Average Fold Changes of the expression level of marker gene Cyp17a1 [2]	Fold Change of expression of Cyp17a1 in individual animals [2]	Average Fold Changes of the expression level of marker gene Nup62 [3]	Fold Change of expression of Nup62 in individual animals [3]	Average Fold Changes of the expression level of marker gene 9030619P08Rik [4]	Fold Change of expression of 9030619P08Rik in individual animals [4]	Average Fold Changes of the expression level of marker gene Zbtb16 [5]	Fold Change of expression of Zbtb16 in individual animals [5]	Average Fold Changes of the expression level of marker gene LOC75771 [6]	Fold Change of expression of LOC75771 in individual animals [6]
CC(=O)Nc1ccc2c(c1)Cc1ccccc1-2 [GTXC_2-AAF, 2-Acetylaminofluorene]	1,87	1,655817 and 2,059207 and 2,270806 and 1,587469	-1,62	1,364397 and -2,15504 and -2,61584 and -1,66057	-1,51	-1,55724 and -1,69925 and -1,3329 and -1,46527	1,38	1,187438 and 1,340597 and 1,335409 and 1,684509	-2,94	-3,61818 and -2,77847 and -3,11926 and -2,3778	1,64	1,705921 and 2,011494 and 1,050507 and 1,984839
CCCCC(CC)COC(=O)c1ccccc1C(=O)OCC(CC)CCCC (stereo not shown) [NGTXC_DEHP, Di(2-ethylhexyl)phthalate]	-1,13	-1,08 and -1,18919 and 1,270926 and -1,59617	2,49	6,253363 and 1,806164 and 1,292719 and 2,626167	1,03	1,166832 and 1,023361 and -1,1264 and 1,077398	3,11	1,421539 and 3,741746 and 4,049144 and 4,353386	-1,19	-1,41583 and 1,601817 and -2,52071 and 1,114567	1,12	1,152676 and 1,339443 and 1,013056 and 1,023425
c1ccc2c(c1)cc1ccc3cccc4ccc2c1c34 [GTXC_BaP, Benzo(a)pyrene]	1,58	2,091694 and 1,512848 and 1,249576 and 1,590135	1,59	1,069143 and -1,57076 and 2,426957 and 3,849942	-1,40	-1,46302 and -1,51176 and -1,24257 and -1,41015	3,08	3,463285 and 3,508919 and 1,242329 and 5,940256	-2,08	-2,2075 and -2,73557 and -2,65608 and -1,1713	1,94	2,511058 and 2,153342 and 1,654892 and 1,573528
CCOc1ccc(NC(C)=O)cc1 [GTXC_Phe, Phenacetin]	–	1,592469 and 1,221871 and 1,552723 and 1,512243	1,82	1,929473 and -1,08575 and 2,976794 and 2,054986	–	-1,46978 and -1,41748 and -1,3917 and -1,33382	–	2,591988 and 1,278319 and 1,436254 and 4,17095	–	-4,26686 and -1,26966 and -2,10594 and -2,30082	–	1,462697 and 1,408953 and 1,858825 and 1,503018
CC/C(=C(/CC)c1ccc(O)cc1)c1ccc(O)cc1 [NGTXC_DES, Diethylstillbestrol]	-1,02	1,020605 and 1,193296 and -1,09903 and -1,20697	10,74	9,417864 and 18,44632 and 6,256012 and 12,22566	-1,07	-1,56356 and 1,18178 and -1,04186 and 1,041463	8,00	3,399244 and 17,02687 and 10,00524 and 7,062258	-1,15	-1,72326 and 1,430939 and 1,400903 and -2,03597	-1,06	-1,13239 and -1,07708 and 1,027336 and -1,04436
CC(C)CCCCCCCOC(=O)c1ccccc1C(=O)OCCCCCCCC(C)C [NC_DIDP, Diisodecyl phthalate]	1,17	1,254408 and -1,44863 and 1,229508 and 1,74936	-1,22	-1,67941 and 2,746697 and -2,01664 and -1,81914	-1,03	1,082226 and -1,02869 and 1,206993 and -1,44589	1,19	1,367458 and -2,48269 and 1,316609 and 2,807593	-1,37	1,045284 and -1,02838 and -1,15546 and -3,11558	1,26	1,468884 and 1,270453 and 1,155297 and 1,177232
CCC1(c2ccccc2)C(=O)NC(=O)NC1=O [NGTXC_PBB, Phenobarbital]	1,47	1,857325 and 1,468237 and 1,631778 and 1,048775	2,24	1,987088 and 1,966993 and 2,933095 and 2,191937	1,00	-1,18737 and -1,21348 and 1,070337 and 1,356669	15,09	10,68519 and 17,28227 and 19,31769 and 14,53071	-1,59	-2,34418 and -1,15391 and -1,99396 and -1,17093	1,17	1,084573 and 1,085274 and 1,34375 and 1,18945
CC(C)(c1ccc(O)cc1)c1ccc(O)cc1 [NC_BPA, Bisphenol A]	-1,02	-1,16229 and 1,285365 and -1,14224 and -1,06695	-2,45	-4,75677 and -1,01075 and -3,4994 and -2,12839	-1,04	-1,01361 and -1,00973 and 1,14385 and -1,3266	1,29	-1,23514 and 2,605592 and 1,167664 and 1,121763	-1,23	1,114306 and -1,6599 and 1,05274 and -1,63459	1,14	1,027932 and 1,306211 and -1,1049 and 1,370273
N.N.[Cl][Pt][Cl] [GTXC_CPPD, Cisplatin]	1,62	1,894611 and 1,416897 and 1,570269	-2,48	-4,49668 and -2,09626 and -1,61055	-1,39	-1,40437 and -1,37437 and -1,38035	1,70	1,882632 and 3,19679 and -1,23124	-3,46	-4,28606 and -2,61037 and -3,7119	1,98	2,205733 and 1,720149 and 2,049812
